ChEMBL document CHEMBL4819132, “Discovery of novel tripeptide propylene oxide proteasome inhibitors for the treatment of multiple myeloma” (Bioorg Med Chem, 2021)

Experiments:
Format in all cases: ADME, organism-based
[1] = AUClast in Sprague-Dawley rat at 10 mg/kg, ig measured by LC-MS/MS analysis; set-up: dose 10 mg/kg; conditions: in vivo, po
[2] = Mean residence time in Sprague-Dawley rat at 10 mg/kg, ig measured by LC-MS/MS analysis; conditions: in vivo, po
[3] = Mean residence time in Sprague-Dawley rat at 1 mg/kg, iv measured by LC-MS/MS analysis; conditions: in vivo
[4] = AUClast in Sprague-Dawley rat at 1 mg/kg, iv measured by LC-MS/MS analysis; set-up: dose 1 mg/kg; conditions: in vivo
[5] = Tmax in Sprague-Dawley rat at 10 mg/kg, ig measured by LC-MS/MS analysis; conditions: in vivo, po
[6] = Bioavailability in Sprague-Dawley rat at 10 mg/kg, ig measured by LC-MS/MS analysis; conditions: in vivo, po
[7] = Tmax in Sprague-Dawley rat at 1 mg/kg, iv measured by LC-MS/MS analysis; conditions: in vivo

## COC[C@H](NC(=O)c1cc(C)on1)C(=O)NCC(=O)N[C@@H](Cc1ccccc1)C(=O)[C@@]1(C)CO1
[1]
  AUClast: 42 ng·mL·h
[2]
  MRT: 36.6 min
[3]
  MRT: 8.4 min
[4]
  AUClast: 72 ng·mL·h
[5]
  Tmax: 10.2 min
[6]
  bioavailability: 6.3%
[7]
  Tmax: 4.8 min

## COC[C@H](NC(=O)c1cc(C)on1)C(=O)NCC(=O)N[C@@H](CC(C)C)C(=O)[C@@]1(C)CO1
[1]
  AUClast: 119 ng·mL·h
[2]
  MRT: 51.6 min
[3]
  MRT: 19.8 min
[4]
  AUClast: 107 ng·mL·h
[5]
  Tmax: 13.2 min
[6]
  bioavailability: 13.5%
[7]
  Tmax: 4.8 min
